# Results published in US20050026911A1, “Benzotriazapinone salts and methods for using same” (priority 2003, published 2005).
# Molecular target: T1, gastrin (CCK2) receptors (Rattus norvegicus, UniProt P30553)
# T1 construct: The stomach was excised and flushed with ca. 1 ml of unbuffered physiological saline solution; from tissue; host or cells: isolated whole stomach of immature rats (ca. 21 days old)
# T1 sequence (P30553 1-452): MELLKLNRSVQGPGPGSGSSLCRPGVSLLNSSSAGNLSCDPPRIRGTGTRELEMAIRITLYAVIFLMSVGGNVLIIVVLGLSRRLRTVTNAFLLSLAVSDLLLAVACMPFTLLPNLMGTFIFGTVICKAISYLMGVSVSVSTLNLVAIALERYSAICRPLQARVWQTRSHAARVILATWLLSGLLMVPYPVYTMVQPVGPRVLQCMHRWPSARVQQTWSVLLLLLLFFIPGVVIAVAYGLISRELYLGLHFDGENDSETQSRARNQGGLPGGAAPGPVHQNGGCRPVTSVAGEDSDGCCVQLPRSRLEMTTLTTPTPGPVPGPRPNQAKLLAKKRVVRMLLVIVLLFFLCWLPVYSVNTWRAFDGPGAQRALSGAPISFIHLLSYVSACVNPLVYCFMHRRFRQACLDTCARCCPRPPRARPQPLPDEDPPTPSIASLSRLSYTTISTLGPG
# Assay: gastrin (CCK2) antagonist activity in an immature rat stomach assay
# Details: pentagastrin dose-response curves, acid secretion, read-out: pKB rat stomach (converted)
# Description: The compounds of the examples were tested for gastrin (CCK2) antagonist activity in an immature rat stomach assay. The procedure was as follows:
# The oesophagus of immature rats (33-50 g, ca. 21 days old) was ligated at the level of the cardiac sphincter and the duodenal sphincter was cannulated. The stomach was excised and flushed with ca. 1 ml of unbuffered physiological saline solution. The fundus was punctured and cannulated. A further 4-5 ml of unbuffered solution was flushed through the stomach to ensure the preparation was not leaking. […] The stomach was continuously perfused at a rate of 1 ml min^−1 with unbuffered solution gassed with 100% O2 with the perfusate passing over an internally referenced pH-electrode fixed 12 cm above the stomach.
# After 120 min of stabilisation the drugs were added directly to the serosal solution in the organ bath and after a further 60 min cumulative pentagastrin dose-response curves were started.
row,Kb [nM],Structure (SMILES)
1,89.1,"CC(C)(C)C(=O)CN1C(=O)N(CC(=O)Nc2cccc(-c3nn[nH]n3)c2)N=C(C2CCCC2)c2ccccc21 [Example 10, 2-[5-Cyclopentyl-1-(3,3-dimethyl-2-oxo-butyl)-2-oxo-1,2-dihydro-3H-1,3,4-benzotriazepin-3-yl]-[3-(2H-tetrazol-5-yl)-phenyl]-acetamide]"
2,1.29,"CNc1nc(-c2cccc(NC(=O)CN3N=C(C4CCCCC4)c4ccccc4N(CC(=O)C(C)(C)C)C3=O)c2)cs1 [Example 150, 2-[5-Cyclohexyl-1-(3,3-dimethyl-2-oxo-butyl)-2-oxo-1,2-dihydro-3H-1,3,4-benzotriazepin-3-yl]-N-[3-(2-methylamino-thiazol-4-yl)-phenyl]-acetamide]"
3,4.17,"CC(C)(C)C(=O)CN1C(=O)N(CC(=O)Nc2cccc(-c3nc(C(=O)O)co3)c2)N=C(C2CCCCC2)c2ccccc21 [Example 144, 2-(3-{2-[5-Cyclohexyl-1-(3,3-dimethyl-2-oxo-butyl)-2-oxo-1,2-dihydro-3H-1,3,4-benzotriazepin-3-yl]-acetylamino}-phenyl)-oxazole-4-carboxylic acid]"
4,3.98,"CC1CCC(C2=NN(CC(=O)Nc3cccc(CC(=O)O)c3)C(=O)N(CC(=O)C(C)(C)C)c3ccccc32)CC1 (stereo not drawn) [Example 103, (3-{2-[1-(3,3-Dimethyl-2-oxo-butyl)-5-(4-methyl-cyclohexyl)-2-oxo-1,2-dihydro-3H-1,3,4-benzotriazepin-3-yl]-acetylamino}-phenyl)-acetic acid]"
5,110,"CC(C)(C)C(=O)CN1C(=O)N(CC(=O)Nc2cccc(N3CCCC3C(=O)O)c2)N=C(C2CCCCC2)c2ccccc21 (stereo in doubt) [Example 76, (R)-]-(3-{2-[5-Cyclohexyl-1-(3,3-dimethyl-2-oxobutyl)-2-oxo-1,2-dihydro-3H-1,3,4-benzotriazepin-3-yl]-acetylamino}-phenyl)-pyrrolidine-2-carboxylic acid]"
6,74.1,"CC(C)(C)C(=O)CN1C(=O)N(CC(=O)Nc2cccc(NC(=O)CCC(=O)O)c2)N=C(C2CCCCC2)c2ccccc21 [Example 66, N-(3-{2-[5-Cyclohexyl-1-(3,3-dimethyl-2-oxo-butyl)-2-oxo-1,2-dihydro-3H-1,3,4-benzotriazepin-3-yl]-acetylamino}-phenyl)-succinamic acid]"
7,52.5,"CC(=O)N(CC(=O)O)c1cccc(NC(=O)CN2N=C(C3CCCCC3)c3ccccc3N(CC(=O)C(C)(C)C)C2=O)c1 [Example 65, [Acetyl-(3-{2-[5-cyclohexyl-1-(3,3-dimethyl-2-oxo-butyl)-2-oxo-1,2-dihydro-3H-1,3,4-benzotriazepin-3-yl]-acetylamino}-phenyl)-amino]-acetic acid]"
8,457,"CC(C)(C)C(=O)CN1C(=O)N(CC(=O)Nc2cccc(NS(C)(=O)=O)c2)N=C(C2CCCCC2)c2ccccc21 [Example 26, 2-[5-Cyclohexyl-1-(3,3-dimethyl-2-oxo-butyl)-2-oxo-1,2-dihydro-3H-1,3,4-benzotriazepin-3-yl]-N-(3-methanesulfonylamino-phenyl)-acetamide]"
9,11.5,"CC(C)(C)C(=O)CN1C(=O)N(CC(=O)Nc2cccc(-c3cccc(C(=O)O)c3)c2)N=C(C2CCCCC2)c2ccccc21 [Example 151, 3′-{2-[5-Cyclohexyl-1-(3,3-dimethyl-2-oxo-butyl)-2-oxo-1,2-dihydro-3H-1,3,4-benzotriazepin-3-yl]-acetylamino}-biphenyl-3-carboxylic acid]"
10,324,"CNc1cc(NC(=O)CN2N=C(C3CCCCC3)c3ccccc3N(CC(O)C(C)(C)C)C2=O)cc(C(=O)OC)c1 (stereo not drawn) [Example 78, 3-{2-[5-Cyclohexyl-1 (−2-hydroxy-3,3-dimethyl-butyl)-2-oxo-1,2-dihydro-3H-1,3,4-benzotriazepin-3-yl]-acetylamino}-5-methylamino-benzoic acid methyl ester]"
11,1.62,"CC(C)(C)C(=O)CN1C(=O)N(CC(=O)Nc2ccc3ccn(Cc4nnn[nH]4)c3c2)N=C(C2CCCCC2)c2ccccc21 [Example 131, 2-[5-Cyclohexyl-1-(3,3-dimethyl-2-oxo-butyl)-2-oxo-1,2-dihydro-3H-1,3,4-benzotriazepin-3-yl]-N-[1-(1H-tetrazol-5-ylmethyl)-1H-indol-6-yl]-acetamide]"
12,372,"CNc1cc(NC(=O)CN2N=C(C3CCCCC3)c3ccccc3N(CC(=O)C(C)(C)C)C2=O)cc(C(=O)OC)c1 [Example 74, 3-{2-[5-Cyclohexyl-1-(3,3-dimethyl-2-oxo-butyl)-2-oxo-1,2-dihydro-3H-1,3,4-benzotriazepin-3-yl]-acetylamino}-5-methylamino-benzoic acid methyl ester]"
13,17.4,"CC1(C(=O)CN2C(=O)N(CC(=O)Nc3cccc(SCC(=O)O)c3)N=C(C3CCCCC3)c3ccccc32)CCCCC1 [Example 134, [3-(2-{5-Cyclohexyl-1-[2-(1-methyl-cyclohexyl)-2-oxo-ethyl]-2-oxo-1,2-dihydro-3H-1,3,4-benzotriazepin-3-yl}-acetylamino)-phenylsulfanyl]-acetic acid]"
14,44.7,"CC(C)(C)C(=O)CN1C(=O)N(CC(=O)Nc2cccc3c2cnn3CC(=O)O)N=C(C2CCCCC2)c2ccccc21 [Example 130, (4-{2-[5-Cyclohexyl-1-(3,3-dimethyl-2-oxo-butyl)-2-oxo-1,2-dihydro-3H-1,3,4-benzotriazepin-3-yl]-acetylamino}-indazol-1-yl)-acetic acid]"
15,0.661,"CC(C)(C)C(=O)CN1C(=O)N(CC(=O)Nc2cccc(C(=O)O)c2)N=C(C2CCCCC2)c2ccccc21 [Example 2, 3-{2-[5-Cyclohexyl-1-(3,3-dimethyl-2-oxo-butyl)-2-oxo-1,2-dihydro-3H-1,3,4-benzotriazepin-3-yl]-acetylamino}-benzoic acid]"
16,9.55,"CC1(C(=O)CN2C(=O)N(CC(=O)Nc3cccc(CC(=O)O)c3)N=C(C3CCCCC3)c3ccccc32)CCCC1 [Example 82, [3-(2-{5-Cyclohexyl-1-[2-(1-methyl-cyclopentyl)-2-oxo-ethyl]-2-oxo-1,2-dihydro-3H-1,3,4-benzotriazepin-3-yl}-acetylamino)-phenyl]-acetic acid]"
17,51.3,"CNc1cccc(NC(=O)CN2N=C(CC(C)C)c3ccccc3N(CC(=O)C(C)(C)C)C2=O)c1 [Example 13, 2-[1-(3,3-Dimethyl-2-oxo-butyl)-5-isobutyl-2-oxo-1,2-dihydro-3H-1,3,4-benzotriazepin-3-yl]-N-(3-methylaminophenyl)-acetamide]"
18,66.1,"Cc1cccc2c1C(C1CCCCC1)=NN(CC(=O)Nc1cccc(CC(=O)O)c1)C(=O)N2CC(=O)C(C)(C)C [Example 132, (3-{2-[5-Cyclohexyl-1-(3,3-dimethyl-2-oxo-butyl)-6-methyl-2-oxo-1,2-dihydro-3H-1,3,4-benzotriazepin-3-yl]-acetylamino}-phenyl)-acetic acid]"
19,263,"CNc1cccc(NC(=O)CN2N=C(C3CCCCC3)c3ccccc3N(CC(=O)N3CCN(C)CC3)C2=O)c1 [Example 72, 2-{5-Cyclohexyl-1-[2-(4-methyl-piperazin-1-yl)-2-oxo-ethyl]-2-oxo-1,2-dihydro-3H-1,3,4-benzotriazepin-3-yl}-N-(3-methylamino-phenyl)-acetamide]"
20,70.8,"CC(=O)N/C(=C\c1cccc(NC(=O)CN2N=C(C3CCCCC3)c3ccccc3N(CC(=O)C(C)(C)C)C2=O)c1)C(=O)O [Example 155, 2-Acetylamino-3-(3-{2-[5-cyclohexyl-1-(3,3-dimethyl-2-oxo-butyl)-2-oxo-1,2-dihydro-3H-1,3,4-benzotriazepin-3-yl]-acetylamino}-phenyl)-acrylic acid]"
21,1.26,O=C(O)CCCc1cccc(NC(=O)CN2N=C(C3CCCCC3)c3ccccc3N(CC(=O)C3CCCC3)C2=O)c1 [Example 159]
22,2.19,"O=C(CN1N=C(C2CCCCC2)c2ccccc2N(CC(=O)C2CCCCC2)C1=O)Nc1cccc(-c2nc(=O)o[nH]2)c1 [Example 111, 2-[5-Cyclohexyl-1-(2-cyclohexyl-2-oxo-ethyl)-2-oxo-1,2-dihydro-3H-1,3,4-benzotriazepin-3-yl]-N-[3-(5-oxo-2,5-dihydro-[1,2,4]oxadiazol-3-yl)-phenyl]-acetamide]"

row,Structure (SMILES),Kb [nM]
1,"COC(=O)c1coc(-c2cccc(NC(=O)CN3N=C(C4CCCCC4)c4ccccc4N(CC(=O)C(C)(C)C)C3=O)c2)n1 [Example 140, 2-(3-{2-[5-Cyclohexyl-1-(3,3-dimethyl-2-oxo-butyl)-2-oxo-1,2-dihydro-3H-1,3,4-benzotriazepin-3-yl]-acetylamino}-phenyl)-oxazole-4-carboxylic acid methyl ester]",1.12
2,"CC(C)(C)C(=O)CN1C(=O)N(CC(=O)Nc2cccc(SCC(=O)O)c2)N=C(C2CCCCC2)c2ccccc21 [Example 38, (3-{2-[5-Cyclohexyl-1-(3,3-dimethyl-2-oxo-butyl)-2-oxo-1,2-dihydro-3H-1,3,4-benzotriazepin-3-yl]-acetylamino}-phenylsulfanyl)-acetic acid]",6.61
